The source of these data is US20120128593A1, “USE OF A MAGNETIC RESONANCE IMAGING MEDIUM COMPRISING HYPERPOLARIZED 13C PYRUVATE FOR THE DETECTION OF INFLAMMATION OR INFECTION” (priority 2010, published 2012).

The data set can be described thus: T1 relaxation in human full blood. The class given is physicochemical. Conditions: human full blood at 37° C.

With `CC(=O)C(=O)O` [[1-^13C]pyruvate, ^13C1-pyruvate], the T1 relaxation result is recorded as “about 42 s”.
